Experiments:
Test in all cases: Kinase inhibitory activity profiling of RI-962@10 µM (406 kinases, Eurofins)
Type in all cases: biochemical
[1] = target: panel of human kinases (kinase named in endpoint) (Homo sapiens, UniProt O94768); settings: 10 µM; read-out: Activity (%), DRAK2(h)
Method in brief: (§1)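 Radiometric filter-binding kinase assays: enzyme preincubated 15 min with compound in 8 mM MOPS pH 7.0, 0.2 mM EDTA, 250 μM peptide substrate, 10 mM magnesium acetate, 10 μM [γ-33P]-ATP. Reaction started with Mg/ATP, run 40 min at room temperature, stopped with phosphoric acid; 33P incorporation read by scintillation counting. Other kinases by similar protocols.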

[2] = target: panel of human kinases (kinase named in endpoint) (Homo sapiens, UniProt Q05655); settings: 10 µM; read-out: Activity (%), PKCδ(h)
Chain of panel of human kinases (kinase named in endpoint) (Homo sapiens, UniProt Q05655) (Q05655 whole entry): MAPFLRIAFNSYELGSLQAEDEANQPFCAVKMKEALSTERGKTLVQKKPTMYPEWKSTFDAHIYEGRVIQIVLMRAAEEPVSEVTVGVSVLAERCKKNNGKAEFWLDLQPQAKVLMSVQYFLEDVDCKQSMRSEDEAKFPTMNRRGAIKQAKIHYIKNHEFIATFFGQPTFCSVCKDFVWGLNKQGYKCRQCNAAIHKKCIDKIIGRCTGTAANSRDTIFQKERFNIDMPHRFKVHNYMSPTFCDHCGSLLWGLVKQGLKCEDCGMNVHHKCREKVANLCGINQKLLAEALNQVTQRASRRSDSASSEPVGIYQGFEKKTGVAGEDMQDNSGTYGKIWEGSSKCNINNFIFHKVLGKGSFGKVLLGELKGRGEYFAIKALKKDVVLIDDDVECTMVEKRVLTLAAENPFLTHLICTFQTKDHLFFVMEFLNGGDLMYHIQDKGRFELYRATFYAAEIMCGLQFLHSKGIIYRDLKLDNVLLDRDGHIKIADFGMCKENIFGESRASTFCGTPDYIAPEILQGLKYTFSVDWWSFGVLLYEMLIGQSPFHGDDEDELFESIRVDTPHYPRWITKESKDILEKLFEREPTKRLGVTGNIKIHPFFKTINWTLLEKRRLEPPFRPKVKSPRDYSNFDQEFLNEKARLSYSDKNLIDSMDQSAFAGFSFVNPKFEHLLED
Method in brief: as §1

[3] = target: panel of human kinases (kinase named in endpoint) (Homo sapiens, UniProt P42336, E545K); settings: 10 µM; read-out: Activity (%), PI3(p110a(E545K)/p85a)
Method in brief: as §1

[4] = target: panel of human kinases (kinase named in endpoint) (Homo sapiens, UniProt Q14004); settings: read-out: Activity (%), CDK13/cyclinK(h)
Method in brief: as §1

[5] = target: panel of human kinases (kinase named in endpoint) (Homo sapiens, UniProt Q9H4B4); settings: 10 µM; read-out: Activity (%), Plk3(h)
Method in brief: as §1

[6] = target: panel of human kinases (kinase named in endpoint) (Homo sapiens, UniProt Q8TF76); settings: 10 µM; read-out: Activity (%), Haspin(h)
Chain of panel of human kinases (kinase named in endpoint) (Homo sapiens, UniProt Q8TF76) (Q8TF76 whole entry): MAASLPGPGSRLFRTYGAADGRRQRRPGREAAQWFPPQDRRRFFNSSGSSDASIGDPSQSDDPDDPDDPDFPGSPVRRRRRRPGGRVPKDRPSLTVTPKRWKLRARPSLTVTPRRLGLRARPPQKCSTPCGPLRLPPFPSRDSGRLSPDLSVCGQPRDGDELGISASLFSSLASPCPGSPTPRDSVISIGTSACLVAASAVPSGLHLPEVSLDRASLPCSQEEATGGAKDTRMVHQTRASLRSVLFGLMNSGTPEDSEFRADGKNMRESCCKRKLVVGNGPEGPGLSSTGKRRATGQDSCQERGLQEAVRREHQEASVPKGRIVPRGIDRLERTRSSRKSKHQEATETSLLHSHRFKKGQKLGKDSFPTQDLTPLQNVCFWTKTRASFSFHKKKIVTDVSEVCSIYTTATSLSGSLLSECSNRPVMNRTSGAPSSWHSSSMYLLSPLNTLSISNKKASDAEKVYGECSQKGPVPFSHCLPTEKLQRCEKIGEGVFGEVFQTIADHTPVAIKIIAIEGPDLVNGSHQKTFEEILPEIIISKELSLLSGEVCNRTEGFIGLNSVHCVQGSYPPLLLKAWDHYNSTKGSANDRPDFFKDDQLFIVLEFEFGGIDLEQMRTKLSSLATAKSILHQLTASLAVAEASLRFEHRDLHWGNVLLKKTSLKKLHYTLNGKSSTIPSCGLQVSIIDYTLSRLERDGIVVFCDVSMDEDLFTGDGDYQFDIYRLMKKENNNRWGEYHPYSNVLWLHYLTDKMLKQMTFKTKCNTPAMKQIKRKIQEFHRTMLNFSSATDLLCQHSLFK
Method in brief: as §1

[7] = target: panel of human kinases (kinase named in endpoint) (Homo sapiens, UniProt P36888); settings: 10 µM; read-out: Activity (%), Flt3(h)
Method in brief: as §1

[8] = target: panel of human kinases (kinase named in endpoint) (Homo sapiens, UniProt P50750); settings: 10 µM; read-out: Activity (%), CDK9/cyclin T1(h)
Method in brief: as §1

[9] = target: panel of human kinases (kinase named in endpoint) (Homo sapiens, UniProt Q9UBE8); settings: 10 µM; read-out: Activity (%), NLK(h)
Chain of panel of human kinases (kinase named in endpoint) (Homo sapiens, UniProt Q9UBE8) (Q9UBE8 whole entry): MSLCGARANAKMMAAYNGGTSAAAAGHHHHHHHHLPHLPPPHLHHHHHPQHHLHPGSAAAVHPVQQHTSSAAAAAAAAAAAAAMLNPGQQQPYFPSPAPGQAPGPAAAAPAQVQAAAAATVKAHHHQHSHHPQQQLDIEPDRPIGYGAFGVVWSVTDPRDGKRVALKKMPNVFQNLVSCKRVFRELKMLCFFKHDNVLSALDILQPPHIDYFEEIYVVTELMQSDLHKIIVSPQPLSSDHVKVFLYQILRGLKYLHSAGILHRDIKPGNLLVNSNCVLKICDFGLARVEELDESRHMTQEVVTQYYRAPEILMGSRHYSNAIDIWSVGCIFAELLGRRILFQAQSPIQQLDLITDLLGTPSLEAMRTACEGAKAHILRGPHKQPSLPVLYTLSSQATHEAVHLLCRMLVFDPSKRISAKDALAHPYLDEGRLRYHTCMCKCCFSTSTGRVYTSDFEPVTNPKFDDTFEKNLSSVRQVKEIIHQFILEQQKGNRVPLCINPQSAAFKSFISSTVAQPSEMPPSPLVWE
Method in brief: as §1

[10] = target: panel of human kinases (kinase named in endpoint) (Homo sapiens, UniProt Q7L7X3); settings: 10 µM; read-out: Activity (%), TAO1(h)
Method in brief: as §1

[11] = target: panel of human kinases (kinase named in endpoint) (Homo sapiens, UniProt Q9Y2H1); settings: 10 µM; read-out: Activity (%), NDR2(h)
Method in brief: as §1

[12] = target: panel of human kinases (kinase named in endpoint) (Homo sapiens, UniProt P50613); settings: 10 µM; read-out: Activity (%), CDK7/cyclinH/MAT1(h)
Chain of panel of human kinases (kinase named in endpoint) (Homo sapiens, UniProt P50613) (P50613 whole entry): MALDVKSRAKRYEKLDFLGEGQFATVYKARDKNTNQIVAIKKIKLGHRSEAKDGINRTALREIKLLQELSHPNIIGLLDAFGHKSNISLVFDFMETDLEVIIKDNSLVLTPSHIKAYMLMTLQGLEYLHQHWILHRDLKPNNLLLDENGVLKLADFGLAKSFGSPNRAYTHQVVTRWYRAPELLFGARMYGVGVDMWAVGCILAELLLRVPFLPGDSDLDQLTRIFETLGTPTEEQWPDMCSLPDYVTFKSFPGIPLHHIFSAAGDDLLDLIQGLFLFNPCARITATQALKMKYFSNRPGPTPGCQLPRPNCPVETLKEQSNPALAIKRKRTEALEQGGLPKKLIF
Method in brief: as §1

[13] = target: panel of human kinases (kinase named in endpoint) (Homo sapiens, UniProt P04626); settings: 10 µM; read-out: Activity (%), ErbB2(h)
Chain of panel of human kinases (kinase named in endpoint) (Homo sapiens, UniProt P04626) (P04626 23-1255): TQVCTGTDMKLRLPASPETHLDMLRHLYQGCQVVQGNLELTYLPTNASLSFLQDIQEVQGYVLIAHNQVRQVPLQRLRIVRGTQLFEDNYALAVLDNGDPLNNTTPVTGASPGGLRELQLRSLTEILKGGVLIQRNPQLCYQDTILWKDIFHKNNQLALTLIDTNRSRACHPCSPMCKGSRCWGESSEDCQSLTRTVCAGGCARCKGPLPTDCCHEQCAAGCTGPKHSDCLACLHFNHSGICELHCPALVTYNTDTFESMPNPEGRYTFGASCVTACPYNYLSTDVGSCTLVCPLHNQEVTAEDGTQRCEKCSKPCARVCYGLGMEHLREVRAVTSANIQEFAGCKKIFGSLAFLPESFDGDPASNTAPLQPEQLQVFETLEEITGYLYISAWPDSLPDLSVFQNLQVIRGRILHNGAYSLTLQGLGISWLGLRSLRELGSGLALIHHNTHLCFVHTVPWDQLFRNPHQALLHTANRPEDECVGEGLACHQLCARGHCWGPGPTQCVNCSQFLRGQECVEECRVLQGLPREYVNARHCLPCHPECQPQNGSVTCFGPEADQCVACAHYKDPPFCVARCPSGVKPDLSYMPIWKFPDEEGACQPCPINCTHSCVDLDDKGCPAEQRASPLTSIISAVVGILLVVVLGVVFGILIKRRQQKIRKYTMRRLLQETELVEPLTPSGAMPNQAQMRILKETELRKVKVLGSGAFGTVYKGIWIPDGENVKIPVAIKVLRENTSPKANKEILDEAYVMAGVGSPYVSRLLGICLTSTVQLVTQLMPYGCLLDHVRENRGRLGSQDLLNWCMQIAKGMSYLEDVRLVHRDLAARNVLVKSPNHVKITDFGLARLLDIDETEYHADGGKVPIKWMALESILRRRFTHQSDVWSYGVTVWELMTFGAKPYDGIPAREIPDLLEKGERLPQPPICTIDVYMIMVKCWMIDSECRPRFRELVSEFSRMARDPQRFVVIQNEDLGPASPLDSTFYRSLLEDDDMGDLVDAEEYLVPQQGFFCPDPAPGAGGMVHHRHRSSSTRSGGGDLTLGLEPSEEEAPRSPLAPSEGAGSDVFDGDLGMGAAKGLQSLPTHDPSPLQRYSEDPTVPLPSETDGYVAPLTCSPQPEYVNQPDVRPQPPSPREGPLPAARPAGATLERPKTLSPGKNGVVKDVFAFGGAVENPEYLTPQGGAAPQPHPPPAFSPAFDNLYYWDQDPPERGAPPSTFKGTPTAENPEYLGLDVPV
Method in brief: as §1

[14] = target: panel of human kinases (kinase named in endpoint) (Homo sapiens, UniProt Q9HAZ1); settings: 10 µM; read-out: Activity (%), CLK4(h)
Chain of panel of human kinases (kinase named in endpoint) (Homo sapiens, UniProt Q9HAZ1) (Q9HAZ1 whole entry): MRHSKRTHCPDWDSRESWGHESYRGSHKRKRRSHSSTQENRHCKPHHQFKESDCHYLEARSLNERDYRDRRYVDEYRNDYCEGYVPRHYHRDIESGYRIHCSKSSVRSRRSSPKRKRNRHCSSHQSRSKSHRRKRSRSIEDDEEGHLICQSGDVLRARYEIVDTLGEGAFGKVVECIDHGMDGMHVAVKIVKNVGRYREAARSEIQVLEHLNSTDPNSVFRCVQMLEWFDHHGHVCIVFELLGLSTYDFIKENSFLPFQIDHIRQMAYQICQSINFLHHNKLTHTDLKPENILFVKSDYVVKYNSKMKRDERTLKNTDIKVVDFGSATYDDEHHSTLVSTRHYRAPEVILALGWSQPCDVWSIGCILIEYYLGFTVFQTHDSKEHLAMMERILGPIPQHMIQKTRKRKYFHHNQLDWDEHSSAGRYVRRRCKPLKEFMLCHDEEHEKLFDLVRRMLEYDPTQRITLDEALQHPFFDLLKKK
Method in brief: as §1

[15] = target: panel of human kinases (kinase named in endpoint) (Homo sapiens, UniProt P54646); settings: 10 µM; read-out: Activity (%), AMPKα2(h)
Chain of panel of human kinases (kinase named in endpoint) (Homo sapiens, UniProt P54646) (P54646 whole entry): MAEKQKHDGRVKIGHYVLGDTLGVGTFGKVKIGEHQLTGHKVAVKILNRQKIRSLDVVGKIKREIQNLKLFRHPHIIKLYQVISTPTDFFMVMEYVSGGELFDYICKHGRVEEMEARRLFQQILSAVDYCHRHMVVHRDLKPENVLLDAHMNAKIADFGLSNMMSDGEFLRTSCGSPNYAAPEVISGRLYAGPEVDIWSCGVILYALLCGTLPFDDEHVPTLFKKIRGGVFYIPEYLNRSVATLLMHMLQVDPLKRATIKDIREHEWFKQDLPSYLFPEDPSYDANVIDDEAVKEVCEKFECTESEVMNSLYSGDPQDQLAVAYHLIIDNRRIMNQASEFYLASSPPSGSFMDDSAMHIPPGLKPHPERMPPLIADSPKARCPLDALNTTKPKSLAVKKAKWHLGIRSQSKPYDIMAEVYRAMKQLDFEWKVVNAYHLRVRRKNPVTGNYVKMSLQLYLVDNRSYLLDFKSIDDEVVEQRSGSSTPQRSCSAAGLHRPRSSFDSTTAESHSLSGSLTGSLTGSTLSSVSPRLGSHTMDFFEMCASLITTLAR
Method in brief: as §1

[16] = target: panel of human kinases (kinase named in endpoint) (Homo sapiens, UniProt P23443); settings: 10 µM; read-out: Activity (%), p70S6K(h)
Method in brief: as §1

[17] = target: panel of human kinases (kinase named in endpoint) (Homo sapiens, UniProt Q99683); settings: 10 µM; read-out: Activity (%), ASK1(h)
Method in brief: as §1

[18] = target: panel of human kinases (kinase named in endpoint) (Homo sapiens, UniProt P22694); settings: 10 µM; read-out: Activity (%), PKAcβ(h)
Method in brief: as §1

[19] = target: panel of human kinases (kinase named in endpoint) (Homo sapiens, UniProt Q92918); settings: 10 µM; read-out: Activity (%), HPK1(h)
Method in brief: as §1

[20] = target: panel of human kinases (kinase named in endpoint) (Homo sapiens, UniProt P15735); settings: 10 µM; read-out: Activity (%), PhKγ2(h)
Method in brief: as §1

[21] = target: panel of human kinases (kinase named in endpoint) (Homo sapiens, UniProt Q9NRH2); settings: 10 µM; read-out: Activity (%), SNRK(h)
Method in brief: as §1

[22] = target: panel of human kinases (kinase named in endpoint) (Homo sapiens, UniProt P16591); settings: 10 µM; read-out: Activity (%), Fer(h)
Method in brief: as §1

[23] = target: panel of human kinases (kinase named in endpoint) (Homo sapiens, UniProt Q96L34); settings: 10 µM; read-out: Activity (%), MARK4(h)
Method in brief: as §1

[24] = target: panel of human kinases (kinase named in endpoint) (Homo sapiens, UniProt P20794); settings: 10 µM; read-out: Activity (%), MAK(h)
Method in brief: as §1

[25] = target: panel of human kinases (kinase named in endpoint) (Homo sapiens, UniProt P11309); settings: 10 µM; read-out: Activity (%), Pim-1(h)
Chain of panel of human kinases (kinase named in endpoint) (Homo sapiens, UniProt P11309) (P11309 whole entry): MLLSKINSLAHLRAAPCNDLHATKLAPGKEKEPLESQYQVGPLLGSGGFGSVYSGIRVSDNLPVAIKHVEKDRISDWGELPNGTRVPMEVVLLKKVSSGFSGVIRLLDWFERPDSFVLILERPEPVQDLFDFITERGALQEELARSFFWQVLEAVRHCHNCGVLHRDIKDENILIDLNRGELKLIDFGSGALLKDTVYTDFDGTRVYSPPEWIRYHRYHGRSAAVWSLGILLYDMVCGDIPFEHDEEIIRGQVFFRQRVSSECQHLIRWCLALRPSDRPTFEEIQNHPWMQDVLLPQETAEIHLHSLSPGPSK
Method in brief: as §1

[26] = target: panel of human kinases (kinase named in endpoint) (Homo sapiens, UniProt P15056); settings: 10 µM; read-out: Activity (%), B-Raf(h)
Method in brief: as §1

SMILES: CC(C)C(=O)Nc1nc2cc(-c3ccc4c(c3)c(C(=O)NC(C)c3ccccc3)cn4C)ccn2n1 (centres unmarked) [RI-962]
- activity at 10 µM [1]: 106%
- activity at 10 µM [2]: 90%
- activity at 10 µM [3]: 96%
- activity at 10 µM [4]: 100%
- activity at 10 µM [5]: 88%
- activity at 10 µM [6]: 107%
- activity at 10 µM [7]: 87%
- activity at 10 µM [8]: 67%
- activity at 10 µM [9]: 93%
- activity at 10 µM [10]: 81%
- activity at 10 µM [11]: 85%
- activity at 10 µM [12]: 93%
- activity at 10 µM [13]: 104%
- activity at 10 µM [14]: 103%
- activity at 10 µM [15]: 89%
- activity at 10 µM [16]: 106%
- activity at 10 µM [17]: 97%
- activity at 10 µM [18]: 117%
- activity at 10 µM [19]: 92%
- activity at 10 µM [20]: 93%
- activity at 10 µM [21]: 121%
- activity at 10 µM [22]: 107%
- activity at 10 µM [23]: 102%
- activity at 10 µM [24]: 126%
- activity at 10 µM [25]: 101%
- activity at 10 µM [26]: 99%
